Laboratory results: patent US6310095A, “Inhibitors of protein isoprenyl transferases” (University of Pittsburgh, priority 1998, dated 2001)
Structures can show the parent of a compound that is named as a salt.

Target: T1, protein farnesyltransferase (Rattus norvegicus, UniProt Q02293+Q04631)
T1 construct: Rat brain protein farnesyltransferase activity is measured; from tissue; host or cells: rat brain; purified according to Reiss et al., Cell 62:81-88 (1990), steps one through three
Test: in vitro inhibition of protein farnesyltransferase (scintillation proximity assay, biotin-K Ras B fragment)
Type: biochemical
Details: for inhibition at 0.1 µM / inhibition at 0.01 µM / inhibition at 1 µM: read-out: % inhibition of farnesyltransferase; for inhibition at 0.01 µM: at 1 × 10^-8 M
Method in brief: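 Rat brain enzyme, purified through three steps, in a scintillation proximity assay kit with biotin-K Ras B fragment substrate at 0.1 mM final. Value is % inhibition of farnesylation.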

Q: With `CSCC[C@H](NC(=O)c1ccc(CNCC(=O)N(Cc2ccccc2)Cc2ccccc2)cc1-c1ccccc1C)C(=O)O` [Example 914, N-[4-(N-(N,N-dibenzylacetamido)aminomethyl)-2-(2-methylphenyl)benzoyl]methionine] as the compound, how does the inhibition at 0.1 µM (at 1 × 10^-7 M) read?
A: 91%

Q: How did the “% inhibition of farnesyltransferase” value (at 1 × 10^-6 M) turn out when `CSCC[C@H](NC(=O)c1ccc(CS[C@H](CO)Cc2ccccc2)cc1-c1ccccc1)C(=O)O` [Example 545] was run?
A: 88%

Q: Which “% inhibition of farnesyltransferase” value (at 1 × 10^-6 M) does the source give for `CSCC[C@H](NC(=O)c1ccc(OCCCc2ccccc2)cc1-c1ccccc1C)C(=O)[O-].[Li+]` [Example 879] here?
A: 95%

Q: With `CSCC[C@H](NC(=O)c1ccc(CN[C@H](CSC2CCCCC2)CC2CCCCC2)cc1-c1ccccc1C)C(=O)O` [Example 766, lithium salt] as the compound, how does the inhibition at 0.01 µM read?
A: 95%

Q: Which “% inhibition of farnesyltransferase” value (at 1 × 10^-7 M) does the source give for `CSCC[C@H](NC(=O)c1ccc(COCc2cnc(-c3cccc(Cl)c3)o2)cc1-c1ccccc1C)C(=O)[O-].[Li+]` [Example 893] here?
A: 87%

Q: With `CSCC[C@H](NC(=O)c1ccc(CN[C@H](CO)C2CCCCC2)cc1-c1ccccc1C)C(=O)O` [Example 520, N-[4-N-(2-cyclohexyl-1-ethan-1-ol-2-yl)aminomethyl-2-(2-methylphenyl)benzoyl]methionine lithium salt] as the compound, how does the inhibition at 0.1 µM (at 1 × 10^-7 M) read?
A: 97%

Q: For `CSCC[C@H](NC(=O)c1ccc(CN(CCC2CCCCC2)C(=O)c2ccccc2)cc1-c1ccccc1C)C(=O)O` [Example 762, N-[4-N-Benzoyl-N-2-cyclohexylethylaminomethyl-2-(2-methylphenyl)benzoyl]methionine lithium salt], which inhibition at 0.01 µM is on record?
A: 84%

Q: For `CSCC[C@H](NC(=O)c1ccc(CNc2cccc(O)c2)cc1-c1ccccc1)C(=O)O` [Example 676], which inhibition at 10 µM (at 1 × 10^-5 M) is on record?
A: 76%

Q: For `CSCC[C@H](NC(=O)c1ccc(CN(CC(c2ccccc2)c2ccccc2)c2ccccc2)cc1-c1ccccc1C)C(=O)O` [Example 509], which inhibition at 1 µM (at 1 × 10^-6 M) is on record?
A: 77%

Q: How did the inhibition at 1 µM (at 1 × 10^-6 M) turn out when `COc1ccc(CNCc2ccc(C(=O)N[C@@H](CCSC)C(=O)O)c(-c3ccccc3)c2)c(OC)c1` [Example 655] was run?
A: 35%

Q: How did the “% inhibition of farnesyltransferase” value (at 1 × 10^-6 M) turn out when `CSCC[C@H](NC(=O)c1ccc(OC/C=C/c2ccccc2)cc1-c1ccccc1C)C(=O)O` [Example 560] was run?
A: 91%
